According to the NIST ThermoML archive (doi:10.1016/j.fluid.2016.01.044):
Numbers after ± are expanded uncertainties.

Columns and labels:
[1] = Molar enthalpy of transition or fusion; details: Crystal; DSC
[2] = Crystal; DTA

Row | Molar enthalpy of transition or fusion [1] [kcal/mol] | Normal melting temperature [2] [°C] | SMILES
1 | 6.89 ± 0.196 | -28.52 ± 0.5 | CCCCCCCCCC [decane]
2 | 9.15 ± 0.263 | -0.20 ± 0.5 | CCCCCCCCCCCC(=O)OCC [ethyl dodecanoate]
3 |  | 24.78 ± 0.5 | CCCCCCCCCCCCCCCC(=O)OCC [ethyl hexadecanoate]
